{"source": "the supplement of paper PMC10307832", "assay_in_all_cases": "relative viability (nuclei count vs DMSO), 5 days (fraction); higher = more cells survive", "key": {"[1]": {"compound": "CC(O)(CS(=O)(=O)c1ccc(F)cc1)C(=O)Nc1ccc(C#N)c(C(F)(F)F)c1 [Bicalutamide] + COc1cc2c(Oc3ccc(NC(=O)C4(C(=O)Nc5ccc(F)cc5)CC4)cc3F)ccnc2cc1OCCCN1CCOCC1 [Foretinib] (partner 0.25 µM)", "in_short": "(§1)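 Each reported value is a median over duplicate plates. It expresses relative viability: treated-well nuclei count divided by vehicle-well nuclei count. Lung cancer cell lines in 1536-well plates were dosed by pin tool a day after seeding, alone with one drug or with a fixed anchor-drug dose plus five library-drug doses (not always all listed) in √10 steps, and nuclei were counted after 5 days.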"}, "[2]": {"compound": "CC(O)(CS(=O)(=O)c1ccc(F)cc1)C(=O)Nc1ccc(C#N)c(C(F)(F)F)c1 [Bicalutamide] + CC(C)C[C@H](NC(=O)[C@H](Cc1ccccc1)NC(=O)c1cnccn1)B(O)O [Bortezomib] (partner 0.002 µM)", "in_short": "as §1"}, "[3]": {"compound": "CC(O)(CS(=O)(=O)c1ccc(F)cc1)C(=O)Nc1ccc(C#N)c(C(F)(F)F)c1 [Bicalutamide] + COc1cccc2cc(-c3nc([C@H]4CC[C@H](C(=O)O)CC4)n4ncnc(N)c34)[nH]c12 [OSI-027] (partner 0.5 µM)", "in_short": "as §1"}, "[4]": {"compound": "C(C(=O)C(=O)O)Br [Bromopyruvate] + C[C@]1(O)C[C@@H](c2nc(-c3ccc4ccc(-c5ccccc5)nc4c3)c3c(N)nccn32)C1 [Linsitinib] (partner 1 µM)", "in_short": "as §1"}}}
{"cell line": "UMC-11", "values": [{"measurement": "relative viability", "setting": "[1]; first compound 0.08 µM", "value": 1.11}, {"measurement": "relative viability", "setting": "[1]; first compound 0.253 µM", "value": 0.966}, {"measurement": "relative viability", "setting": "[1]; first compound 0.8 µM", "value": 1.08}, {"measurement": "relative viability", "setting": "[1]; first compound 2.53 µM", "value": 1.05}, {"measurement": "relative viability", "setting": "[2]; first compound 0.08 µM", "value": 0.758}, {"measurement": "relative viability", "setting": "[2]; first compound 0.253 µM", "value": 0.67}, {"measurement": "relative viability", "setting": "[2]; first compound 0.8 µM", "value": 0.762}, {"measurement": "relative viability", "setting": "[2]; first compound 2.53 µM", "value": 0.596}, {"measurement": "relative viability", "setting": "[3]; first compound 0.08 µM", "value": 0.505}, {"measurement": "relative viability", "setting": "[3]; first compound 0.253 µM", "value": 0.461}, {"measurement": "relative viability", "setting": "[3]; first compound 0.8 µM", "value": 0.591}, {"measurement": "relative viability", "setting": "[3]; first compound 2.53 µM", "value": 0.395}, {"measurement": "relative viability", "setting": "[4]; first compound 1 µM", "value": 1.03}, {"measurement": "relative viability", "setting": "[4]; first compound 3.162 µM", "value": 1.08}, {"measurement": "relative viability", "setting": "[4]; first compound 10 µM", "value": 0.884}, {"measurement": "relative viability", "setting": "[4]; first compound 31.62 µM", "value": 0.987}, {"measurement": "relative viability", "setting": "[4]; first compound 100 µM", "value": 1.03}]}
